The record followed here is PubChem BioAssay (NCI).

Among the test systems are UO-31 renal; NCI-H522 lung; SNB-75 CNS; HL-60(TB) leukemia; HOP-62 NSCLC; NCI-H460 lung; HT29 colon; MALME-3M melanoma; KM12 colon; UACC-62 melanoma.
What all share (test): inhibition of tumour cell growth, NCI panel, 48 h

The structures appear in SMILES notation.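 In this assay, cells in 96-well plates receive the compound at five concentrations for 48 hours. Endpoints are linearly interpolated between the surrounding concentrations. Here, GI50 denotes the concentration required for 50% inhibition of growth. TGI: total growth inhibition.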

For `CCCCCCCCCCCC(=O)C1=C(O)C(O)CCC1=O` (stereo not drawn), the TGI in the test on UO-31 renal came out at 64.9 µM; with NCI-H522 lung, 33.1 µM; in the test with SNB-75 CNS, 67.7 µM; in the test with HL-60(TB) leukemia, 38.8 µM; in the test with HOP-62 NSCLC, 40.4 µM; in the test with NCI-H460 lung, 44.4 µM. In addition, the TGI is 30.1 µM with HT29 colon, 32 µM in the test on MALME-3M melanoma, 43.2 µM in the test on KM12 colon and 25.5 µM with UACC-62 melanoma.
As to `CN(C)CCNC(=O)c1cc([N+](=O)[O-])cc2ccc(-c3ccccc3)nc12`, the TGI in the test with UO-31 renal worked out at 11.2 µM; with NCI-H522 lung, 17.2 µM; in the test with SNB-75 CNS it was 23.8 µM; in the test with HL-60(TB) leukemia, 21.7 µM; in the test with HOP-62 NSCLC it was 38.1 µM; in the test on NCI-H460 lung it was 12.8 µM. The TGI in the test with HT29 colon came out at 40 µM; in the test with MALME-3M melanoma it was 19.5 µM; with KM12 colon it was 49.6 µM; in the test with UACC-62 melanoma, 15.7 µM.
Take `Cc1ccc(C)c(NC(=O)/C(=N\NC(N)=S)C(C#N)c2ccccc2)c1` (stereo not drawn): the TGI with UO-31 renal, in the test with NCI-H522 lung, in the test on SNB-75 CNS, in the test on HL-60(TB) leukemia, in the test on HOP-62 NSCLC and in the test on NCI-H460 lung was over 100 µM in each case. Moreover, the TGI in the test with HT29 colon, with MALME-3M melanoma, with KM12 colon and in the test with UACC-62 melanoma was over 100 µM each time.
Consider `O=C1NC(=O)C(c2ccccc2Cl)=C1Nc1cccc(O)c1`, for which the GI50 with UO-31 renal is 7.24 µM; in the test with NCI-H522 lung, 2.17 µM; in the test with SNB-75 CNS, 6.76 µM; with HL-60(TB) leukemia it was 4.93 µM; in the test on HOP-62 NSCLC, 3.89 µM; in the test with NCI-H460 lung it was 7.12 µM. In addition, the GI50 with HT29 colon is 2.79 µM; in the test with MALME-3M melanoma, over 25 µM; with KM12 colon, 2.51 µM; with UACC-62 melanoma, 2.25 µM. In addition, the TGI is over 25 µM with UO-31 renal; over 25 µM in the test on NCI-H522 lung; over 20.2 µM with SNB-75 CNS; over 25 µM in the test with HL-60(TB) leukemia; over 25 µM with HOP-62 NSCLC; over 25 µM with NCI-H460 lung. In addition, the TGI in the test on HT29 colon, with MALME-3M melanoma, with KM12 colon and with UACC-62 melanoma was over 25 µM in each case.
Turning to `N#C/C(=C(\O)C(=O)O)c1ccc(-c2cccc3ccccc23)cc1`, the TGI with UO-31 renal was over 100 µM; in the test with NCI-H522 lung, over 100 µM; with SNB-75 CNS it was over 100 µM; in the test with HL-60(TB) leukemia, 81.9 µM; in the test with HOP-62 NSCLC it was over 100 µM; in the test on NCI-H460 lung it was over 100 µM. The TGI in the test with HT29 colon, with MALME-3M melanoma, in the test on KM12 colon and with UACC-62 melanoma was over 100 µM each time.
As for `O=C(O)C(Cc1ccc(O)c([N+](=O)[O-])c1)N1C(=O)c2ccccc2C1=O` (stereo not drawn), the TGI with UO-31 renal is over 100 µM; with NCI-H522 lung, over 100 µM; in the test with SNB-75 CNS, over 100 µM; in the test with HL-60(TB) leukemia, 47 µM; in the test on HOP-62 NSCLC it was over 100 µM; with NCI-H460 lung it was over 100 µM. Also, the TGI in the test with HT29 colon, in the test on MALME-3M melanoma, in the test on KM12 colon and with UACC-62 melanoma was over 100 µM each time.
In the case of `C=C(CNCCO)[C@@H]1CC[C@]2(CO)CC[C@]3(C)[C@H](CC[C@@H]4[C@@]5(C)CCC(NCCc6ccc(O)cc6)C(C)(C)[C@@H]5CC[C@]43C)[C@@H]12` (stereo partly drawn), the GI50 with UO-31 renal is 1.51 µM; in the test with NCI-H522 lung, 1.64 µM; in the test with SNB-75 CNS it was 1.31 µM; in the test on HL-60(TB) leukemia, 2 µM; with HOP-62 NSCLC, 1.59 µM; with NCI-H460 lung it was 1.18 µM. Also, the GI50 in the test on HT29 colon was 0.263 µM; in the test with MALME-3M melanoma, 1.59 µM; in the test with KM12 colon, 1.39 µM; with UACC-62 melanoma it was 1.75 µM. The TGI in the test on UO-31 renal came to 2.94 µM; in the test on NCI-H522 lung, 3.13 µM; in the test with SNB-75 CNS, 2.63 µM; with HL-60(TB) leukemia it was 4.08 µM; with HOP-62 NSCLC it was 2.99 µM; in the test on NCI-H460 lung it was 2.63 µM. For the same compound, the TGI was 0.763 µM in the test with HT29 colon, 3.13 µM with MALME-3M melanoma, 2.92 µM in the test on KM12 colon and 3.24 µM in the test on UACC-62 melanoma.
For `CN(C)CCNC(=O)c1cccc(CO)c1[N+](=O)[O-]`, the TGI in the test on UO-31 renal, in the test with NCI-H522 lung, with SNB-75 CNS, in the test with HL-60(TB) leukemia, in the test with HOP-62 NSCLC and with NCI-H460 lung was over 100 µM throughout. In addition, the TGI with HT29 colon, in the test on MALME-3M melanoma, with KM12 colon and in the test on UACC-62 melanoma was over 100 µM in each case.
For the compound `O=c1oc2c3ccc4ccccc4c3n(Cc3nc4ccccc4[nH]3)c2c2ccccc12`, the TGI in the test with UO-31 renal is over 100 µM; in the test on NCI-H522 lung, over 100 µM; in the test with SNB-75 CNS, over 87.7 µM; in the test with HL-60(TB) leukemia, 20 µM; in the test on HOP-62 NSCLC, 75.3 µM; in the test with NCI-H460 lung, over 100 µM. Moreover, the TGI is over 63.4 µM in the test on HT29 colon, over 100 µM with MALME-3M melanoma, over 100 µM with KM12 colon and over 100 µM in the test on UACC-62 melanoma.
On to `CC1=C(N2CC2)C(=O)c2nc3n(c2C1=O)CCC3O` (stereo not drawn), for which the TGI with UO-31 renal worked out at 4.18 µM; with NCI-H522 lung it was 0.262 µM; in the test with SNB-75 CNS, 1.23 µM; in the test on HL-60(TB) leukemia it was 8.47 µM; in the test with HOP-62 NSCLC it was 0.516 µM; in the test on NCI-H460 lung it was 0.324 µM. The TGI with HT29 colon stood at 3.37 µM; in the test on MALME-3M melanoma it was 0.33 µM; in the test with KM12 colon, 0.699 µM; in the test with UACC-62 melanoma, 0.482 µM.
`c1cc2c(cnc3cscc32)s1`: the TGI in the test with UO-31 renal, in the test on NCI-H522 lung, with SNB-75 CNS, in the test on HL-60(TB) leukemia, in the test on HOP-62 NSCLC and with NCI-H460 lung was over 100 µM each time. Moreover, the TGI in the test on HT29 colon, in the test with MALME-3M melanoma and in the test on KM12 colon was over 100 µM throughout.
With `CCc1cccc(C)c1NC(=O)CC1Sc2ccccc2NC1=O` (stereo not drawn), the TGI with UO-31 renal was over 100 µM; with NCI-H522 lung it was 61.5 µM; in the test with SNB-75 CNS, 75 µM; in the test on HL-60(TB) leukemia, 47.3 µM; with HOP-62 NSCLC it was 61.3 µM; in the test with NCI-H460 lung, over 100 µM. Moreover, the TGI in the test with MALME-3M melanoma, in the test on KM12 colon and in the test on UACC-62 melanoma was over 100 µM each time.
